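Exposure lasted 48 hours, with cells grown in 96-well plates and compounds tested at five concentrations. Abbreviation: GI50, concentration required for 50% inhibition of growth. TGI denotes the concentration required for complete inhibition of growth.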
How the values were obtained:
Test in all cases: NCI-60 cell line screen, 48 h
[1] = system: BT-549 breast
[2] = system: DU-145 prostate
[3] = system: KM12 colon
[4] = system: NCI-H460 lung
[5] = system: NCI-H522 lung
[6] = system: SK-OV-3 ovarian
[7] = system: CAKI-1 renal
[8] = system: LOX IMVI melanoma
[9] = system: MOLT-4 leukemia
[10] = system: SK-MEL-2 melanoma

Row | SMILES | GI50 [1] [µM] | TGI [1] [µM] | GI50 [2] [µM] | TGI [2] [µM] | GI50 [3] [µM] | TGI [3] [µM] | GI50 [4] [µM] | TGI [4] [µM] | GI50 [5] [µM] | TGI [5] [µM] | GI50 [6] [µM] | TGI [6] [µM] | GI50 [7] [µM] | TGI [7] [µM] | GI50 [8] [µM] | TGI [8] [µM] | GI50 [9] [µM] | TGI [9] [µM] | GI50 [10] [µM] | TGI [10] [µM]
1 | CCc1cccc(CC)c1NC(=O)c1ccn2c1CCc1cnc(Nc3ccc(N4CCN(C)CC4)cc3OC)nc1-2 | 2.23 | 6.63 | 2.6 | 15.8 | 2.63 | 14.8 | 0.0814 | 10.7 | 1.81 | 4.32 | 11.3 | 23.4 |  |  |  |  |  |  |  | 
2 | Cc1nn(-c2ccccc2)c(C)c1/C=N/N1CCN(Cc2ccccc2)CC1 | 48.2 | > 100 | 96.4 | > 100 | 31.3 | > 100 | 33.5 | > 100 | 78.5 | > 100 |  |  | > 100 | > 100 | 44 | > 100 | 26.8 | 55.2 | 60.7 | > 100
3 | CC1=C2[C@@H](c3ccccc3)C3C=CC2(c2ccccc23)N(C(=O)Nc2cccc3ccccc23)C1=O (some centres not stated) |  |  |  |  |  | > 100 |  |  |  |  |  | > 100 |  | > 100 |  | > 100 |  | > 100 |  | 
4 | N#CC(C#N)=Cc1ccc(Oc2ccccc2)cc1 |  |  |  |  |  | > 100 |  | > 100 |  | 61.6 |  | > 100 |  | > 100 |  | 30.8 |  | 98.4 |  | > 55.7
5 | COc1ccc(NC(=O)CC(=O)n2nc(-c3ccccc3)c(N=Nc3ccccc3C)c2-c2ccccc2)cc1 |  |  |  | > 100 |  | > 100 |  | 53.5 |  | 47.8 |  | 36.3 |  | > 64.8 |  | > 100 |  | > 100 |  | 56.9
6 | COc1ccc(C(=O)c2cc(OC)c(OC)c(OC)c2)cc1/C=C/C(=O)c1ccc2c(c1)OCO2 |  |  | 4.25 | > 100 |  |  | 3.09 | > 100 |  |  | 5.7 | 41.1 | 2.56 | > 100 |  |  | 1.61 | > 100 | 2.81 | 7.47
7 | CCCCCCCCCCCCCC(=O)OC1C(CO)OC(=O)C1O (configuration not stated) |  |  |  |  |  | > 100 |  | > 100 |  |  |  | > 100 |  | > 100 |  | > 100 |  | > 100 |  | > 100
8 | N=C(N)c1ccc(-c2ccc(-c3ccc(Cl)c(Cl)c3)o2)nc1 | 1.61 | 3.15 | 1.89 | 3.62 |  |  |  |  | 1.86 | 4.36 | 1.53 | 3.23 | 1.47 | 2.85 |  |  |  |  |  | 
9 | Cc1cn2c(/C=N/N=C(N)N)c(-c3cc(Cl)sc3Cl)nc2s1 |  |  |  |  | 0.736 | 1.59 | 1.74 | > 50 |  |  | 1.15 | 2.78 | 6.18 | 26 |  |  | 1.17 | 2.06 | 1.98 | > 50
10 | C[CH2][Sn]([Cl])([CH2]C)[CH2]C |  |  |  |  | 1.08 | 12.8 | 1.67 | 5.44 | 0.705 | 3.15 | 1.47 | 5.8 |  |  | 0.386 | 2.06 | 0.369 | 2.96 | 0.606 | 4.48

Reference: PubChem BioAssay (NCI)
